Measurements from US20240148821A1, “PHARMACEUTICAL USE OF CYCLIC PEPTIDE COMPOUND” (CHUGAI SEIYAKU KABUSHIKI KAISHA, priority 2021, published 2024).
Bridge positions count the residues as written; N and C are the ends. Square brackets hold non-standard residues; d marks the D form. Peptide text beside a SMILES is read from it. * marks the point of attachment. hPhe(3-Cl-4-CF3) = N[C@@H](CCc1ccc(C(F)(F)F)c(Cl)c1)C(=O)O; hPhe(3-F,4-CF3) = N[C@@H](CCc1ccc(C(F)(F)F)c(F)c1)C(=O)O; NMePhe(4-Me) = CN[C@@H](Cc1ccc(C)cc1)C(=O)O; NMeCha = CN[C@@H](CC1CCCCC1)C(=O)O; NMeChg = CN[C@H](C(=O)O)C1CCCCC1; NMeI = CC[C@H](C)[C@H](NC)C(=O)O; NMeD = CN[C@@H](CC(=O)O)C(=O)O; NMeL = CN[C@@H](CC(C)C)C(=O)O; Ahp(2) = CCCCC[C@H](N)C(=O)O; NEtAla = CCN[C@@H](C)C(=O)O; NMeV = CN[C@H](C(=O)O)C(C)C; d(β3hA) = C[C@@H](N)CC(=O)O; NMeC = CN[C@@H](CS)C(=O)O; NMeS = CN[C@@H](CO)C(=O)O; NMeA = CN[C@@H](C)C(=O)O; Piperidide = C1CCN(*)CC1; Ac5c = NC1(C(=O)O)CCCC1; Aze = O=C(O)[C@@H]1CCN1; CH2CMe2OH = CC(C)(O)C*; Aib = CC(C)(N)C(=O)O; Isopentyl = CC(C)CC*; NEtG = CCNCC(=O)O; Sar = CNCC(=O)O

Key:
[1] = test system: Human pancreatic cancer cell line AsPC-1 (G12D mutation Kras); assay: AsPC-1 cell growth inhibition (AsPC-1 CGI); type: cell-based; settings: read-out: AsPC-1 cell growth inhibition, 50% growth inhibitory concentration (IC50 value); 96 hours, CellTiter-Glo, values classified in ranges
Method: Test compounds were serially dilated with dimethyl sulfoxide, and 200 nL was then dispensed to a U-bottom 96-well plate using Labcyte Echo. […] The cell suspension was dispensed to a. plate containing a test compound at 100 μL per well and incubated at 37° C. in a 5% carbon dioxide gas incubator. 96 hours later, 80 μL of CellTiter-Glo (Promega) was added to each well and fluorescence was measured.

[2] = target: protein-protein interaction between Kras and SOS1 (biotin-tagged human Kras loaded with GDP, His-tagged human SOS1) (Homo sapiens (Human), UniProt P01116, G12D); assay: Protein-protein interaction inhibition between Kras and SOS1 (KrasG12D-SOS PPI) using AlphaScreen; type: biochemical; settings: AlphaScreen; biotin-tagged human Kras loaded with GDP, His-tagged human SOS1; read-out: KRAS G12D-SOS PPI IC50;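 also: kras produced in E. coli, Ni-coupled donor beads and streptavidin acceptor beads, excitation 680 nm with emission detected at 520–620 nm via singlet oxygen transfer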

| Structure (SMILES) | IC50 [1] [µM] | IC50 [2] [µM] |
| --- | --- | --- |
| CCCCC[C@@H]1NC(=O)[C@H](CC(C)C)N(C)C(=O)C[C@@H](C(=O)N2CCCCC2)N(C)C(=O)[C@H](C(C)C)N(C)C(=O)C2(CCCC2)NC(=O)[C@@H]2CCCN2C(=O)[C@H](CCc2ccc(C(F)(F)F)c(Cl)c2)NC(=O)CN(C)C(=O)[C@H](CC2CCCCC2)N(C)C(=O)[C@@H]2CCN2C(=O)[C@H](C)N(C)C1=O [Compound 1826] ([NMeL][Ahp(2)][NMeA][Aze][NMeCha][Sar][hPhe(3-Cl-4-CF3)]P[Ac5c][NMeV][NMeD]-Piperidide; lactam N-11) | > 0.5 | 0.099 |
| CC[C@H](C)[C@@H]1NC(=O)CSC[C@@H](C(=O)N(C)C)N(C)C(=O)[C@H]([C@@H](C)CC)N(C)C(=O)C2(CCCC2)NC(=O)[C@@H]2CCCN2C(=O)[C@H](CCc2ccc(C(F)(F)F)c(Cl)c2)NC(=O)CN(C)C(=O)[C@H](Cc2ccc(C)cc2)N(C)C(=O)CN(C)C(=O)CN(C)C1=O [Compound 2173, (3S,9S,18S,24R,27S,33S)-18,27-bis[(2S)-butan-2-yl]-3-[2-[3-chloro-4-(trifluoromethyl)phenyl]ethyl]—N,N,7,10,13,16,25,28-octamethyl-9-[(4-methylphenyl)methyl]-2,5,8,11,14,17,20,26.,29,32-decaoxospiro[22-thia-1,4,7,10,13,16,19,25,28,31-decazabicyclo[31.3.0]hexatriacontane-30,1-cyclopentane]-24-carboxamide] ({CH2CO}-I[Sar][Sar][NMePhe(4-Me)][Sar][hPhe(3-Cl-4-CF3)]P[Ac5c][NMeI][NMeC]-NMe2; thioether N-10) | > 0.5 | 0.006 |
| CC[C@H](C)[C@@H]1NC(=O)[C@H](CC(C)C)N(C)C(=O)C[C@@H](C)NC(=O)[C@H](CC(C)C)N(C)C(=O)C(C)(C)NC(=O)[C@H](COCC(C)(C)O)N(C)C(=O)[C@H](CCc2ccc(C(F)(F)F)c(Cl)c2)NC(=O)CN(C)C(=O)[C@H](COCCC(C)C)N(C)C(=O)CN(C)C(=O)CN(CC)C1=O [Compound 1519] (cyclo([Aib][NMeL][d(β3hA)][NMeL]I[NEtG][Sar][NMeS](Isopentyl)[Sar][hPhe(3-Cl-4-CF3)][NMeS](CH2CMe2OH))) | > 0.5 | 0.12 |
| CC[C@H](C)[C@@H]1NC(=O)[C@H](CC(C)C)N(C)C(=O)C[C@@H](C(=O)N2CCCCC2)N(C)C(=O)[C@H](C2CCCCC2)N(C)C(=O)C2(CCCC2)NC(=O)[C@H](COCCC(C)C)N(C)C(=O)[C@H](CCc2ccc(C(F)(F)F)c(Cl)c2)NC(=O)CN(C)C(=O)[C@H](CC2CCCCC2)N(C)C(=O)CN(C)C(=O)CN(C)C1=O [Compound 940] ([NMeL]I[Sar][Sar][NMeCha][Sar][hPhe(3-Cl-4-CF3)][NMeS](Isopentyl)[Ac5c][NMeChg][NMeD]-Piperidide; lactam N-11) | > 0.5 | 0.15 |
| CC[C@H](C)[C@@H]1NC(=O)[C@H](CC(C)C)N(C)C(=O)C[C@@H](C(=O)N2CCCCC2)N(C)C(=O)[C@H](C(C)C)N(C)C(=O)C2(CCCC2)NC(=O)[C@@H]2CCCN2C(=O)[C@H](CCc2ccc(C(F)(F)F)c(Cl)c2)NC(=O)CN(C)C(=O)[C@H](CC2CCCCC2)N(C)C(=O)[C@@H]2CCN2C(=O)[C@H](C)N(CC)C1=O [Compound 443] ([NMeL]I[NEtAla][Aze][NMeCha][Sar][hPhe(3-Cl-4-CF3)]P[Ac5c][NMeV][NMeD]-Piperidide; lactam N-11) | > 0.5 | 0.03 |
| CC[C@H](C)[C@@H]1NC(=O)[C@H](C)N(C)C(=O)C[C@@H](C(=O)N2CCCCC2)N(C)C(=O)[C@H](C(C)C)N(C)C(=O)C2(CCCC2)NC(=O)[C@@H]2CCCN2C(=O)[C@H](CCc2ccc(C(F)(F)F)c(F)c2)NC(=O)CN(C)C(=O)[C@H](CC2CCCCC2)N(C)C(=O)[C@@H]2CCN2C(=O)[C@H](C)N(C)C1=O [Compound 1024] ([NMeA]I[NMeA][Aze][NMeCha][Sar][hPhe(3-F,4-CF3)]P[Ac5c][NMeV][NMeD]-Piperidide; lactam N-11) | > 0.5 | 0.0019 |
